# In US10647679B2, “N-methyl-D-aspartate receptor (NMDAR) potentiators, pharmaceutical compositions, and uses related thereto” (Emory University, priority 2015, dated 2020):
# Like-named read-outs stand apart in the source and are kept apart here.
# Assays:
# Type in all cases: cell-based
# [1] = biological target: T1, recombinant rat GluN1/GluN2B (Rattus norvegicus, UniProt P35439+Q00960); assay: Two-electrode voltage-clamp (TEVC) recordings in Xenopus laevis oocytes, GluN1/GluN2B
# T1 construct: expressed in transfected cells; host or cells: Xenopus laevis oocytes (Ecocyte) injected with in vitro transcribed cRNA
# T1 sequence (Q00960 27-1482, other chains not shown): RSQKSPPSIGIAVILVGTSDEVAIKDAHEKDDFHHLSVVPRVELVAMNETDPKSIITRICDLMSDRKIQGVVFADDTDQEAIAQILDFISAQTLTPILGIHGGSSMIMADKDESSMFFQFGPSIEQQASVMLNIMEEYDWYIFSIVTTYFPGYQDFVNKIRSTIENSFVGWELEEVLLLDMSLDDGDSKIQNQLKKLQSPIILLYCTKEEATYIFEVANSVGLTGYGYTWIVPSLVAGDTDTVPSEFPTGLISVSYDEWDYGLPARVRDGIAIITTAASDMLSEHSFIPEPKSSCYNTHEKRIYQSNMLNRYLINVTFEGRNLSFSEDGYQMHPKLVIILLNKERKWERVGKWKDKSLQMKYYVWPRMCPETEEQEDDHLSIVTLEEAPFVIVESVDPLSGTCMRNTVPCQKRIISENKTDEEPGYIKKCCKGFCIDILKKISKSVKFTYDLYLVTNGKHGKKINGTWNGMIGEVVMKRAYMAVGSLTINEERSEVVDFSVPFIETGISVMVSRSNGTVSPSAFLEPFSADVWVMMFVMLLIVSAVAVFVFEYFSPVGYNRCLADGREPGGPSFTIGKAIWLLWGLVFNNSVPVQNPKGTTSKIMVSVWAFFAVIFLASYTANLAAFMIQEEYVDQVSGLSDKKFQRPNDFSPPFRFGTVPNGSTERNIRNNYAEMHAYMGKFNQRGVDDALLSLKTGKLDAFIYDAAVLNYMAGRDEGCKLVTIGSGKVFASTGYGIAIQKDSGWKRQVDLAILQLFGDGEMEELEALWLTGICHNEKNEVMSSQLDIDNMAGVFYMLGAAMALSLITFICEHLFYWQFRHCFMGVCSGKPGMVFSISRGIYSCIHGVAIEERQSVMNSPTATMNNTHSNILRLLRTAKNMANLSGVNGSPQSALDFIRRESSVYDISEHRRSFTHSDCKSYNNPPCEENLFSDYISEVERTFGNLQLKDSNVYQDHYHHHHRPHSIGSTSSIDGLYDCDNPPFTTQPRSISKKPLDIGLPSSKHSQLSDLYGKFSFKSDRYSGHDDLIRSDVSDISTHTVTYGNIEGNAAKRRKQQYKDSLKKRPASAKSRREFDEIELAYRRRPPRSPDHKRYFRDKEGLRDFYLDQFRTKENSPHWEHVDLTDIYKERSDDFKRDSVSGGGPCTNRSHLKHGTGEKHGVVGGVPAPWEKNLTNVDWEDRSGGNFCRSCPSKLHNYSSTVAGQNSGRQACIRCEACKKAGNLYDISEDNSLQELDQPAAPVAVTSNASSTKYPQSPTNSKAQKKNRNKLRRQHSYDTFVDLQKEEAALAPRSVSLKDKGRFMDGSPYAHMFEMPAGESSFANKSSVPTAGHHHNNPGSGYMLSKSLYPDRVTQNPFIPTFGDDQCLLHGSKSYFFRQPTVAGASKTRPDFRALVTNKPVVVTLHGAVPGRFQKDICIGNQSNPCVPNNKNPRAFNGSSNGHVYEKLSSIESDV
# Procedure: (§1) Data are from between 3-26 oocytes from 2-5 frogs for each compound and receptor tested.
# (§2) Two-electrode voltage-clamp recordings were performed in Xenopus laevis oocytes (Ecocyte) expressing recombinant rat GluN1/GluN2A, GluN1/GluN2B, GluN1/GluN2C, GluN1/GluN2D. cRNA was transcribed in vitro (Ambion), diluted with nuclease free water, and injected at a ratio of 1:2 GluN1:GluN2 (5-10 ng total cRNA). The oocytes were kept in Barth's solution comprised of (in mM) 88 NaCl, 5 Tris-HCl, 2.4 NaHCO3, 1 KCl, 0.84 MgSO4, 0.41 CaCl2, and 0.33 Ca(NO3)2 at pH 7.4 at 15-17° C. for two to five days before experiments. Oocytes were placed into a perfusion chamber and continually washed with recording solution containing (in mM) 90 NaCl, 1.0 KCl, 0.5 BaCl2, 0.005 EDTA, and 10 HEPES at pH 7.4 (23° C.). Voltage clamp recordings were conducted at a holding potential of −40 mV. All compounds were made as 20 mM stock solutions in DMSO and dissolved to reach the final concentration in recording solution. Final DMSO content was 0.05-0.5% (vol/vol). Some oocytes expressing GluN1/GluN2A were pretreated with […] BAPTA-AM for 10 minutes or injected with […] of 2 mM K-BAPTA to prevent gradual run-up of the current response.
# [2] = biological target: T2, recombinant rat GluN1/GluN2C (Rattus norvegicus, UniProt P35439+Q00961); assay: Two-electrode voltage-clamp (TEVC) recordings in Xenopus laevis oocytes, GluN1/GluN2C
# T2 construct: expressed in transfected cells; host or cells: Xenopus laevis oocytes (Ecocyte) injected with in vitro transcribed cRNA
# Procedure: as §1, §2
# [3] = biological target: T3, recombinant rat GluN1/GluN2A (Rattus norvegicus, UniProt Q00959); assay: Two-electrode voltage-clamp (TEVC) recordings in Xenopus laevis oocytes, GluN1/GluN2A; conditions: maximum potentiation, response without modulator = 100%
# T3 construct: expressed in transfected cells; host or cells: Xenopus laevis oocytes (Ecocyte) injected with in vitro transcribed cRNA
# T3 sequence (Q00959 23-1464, other chains not shown): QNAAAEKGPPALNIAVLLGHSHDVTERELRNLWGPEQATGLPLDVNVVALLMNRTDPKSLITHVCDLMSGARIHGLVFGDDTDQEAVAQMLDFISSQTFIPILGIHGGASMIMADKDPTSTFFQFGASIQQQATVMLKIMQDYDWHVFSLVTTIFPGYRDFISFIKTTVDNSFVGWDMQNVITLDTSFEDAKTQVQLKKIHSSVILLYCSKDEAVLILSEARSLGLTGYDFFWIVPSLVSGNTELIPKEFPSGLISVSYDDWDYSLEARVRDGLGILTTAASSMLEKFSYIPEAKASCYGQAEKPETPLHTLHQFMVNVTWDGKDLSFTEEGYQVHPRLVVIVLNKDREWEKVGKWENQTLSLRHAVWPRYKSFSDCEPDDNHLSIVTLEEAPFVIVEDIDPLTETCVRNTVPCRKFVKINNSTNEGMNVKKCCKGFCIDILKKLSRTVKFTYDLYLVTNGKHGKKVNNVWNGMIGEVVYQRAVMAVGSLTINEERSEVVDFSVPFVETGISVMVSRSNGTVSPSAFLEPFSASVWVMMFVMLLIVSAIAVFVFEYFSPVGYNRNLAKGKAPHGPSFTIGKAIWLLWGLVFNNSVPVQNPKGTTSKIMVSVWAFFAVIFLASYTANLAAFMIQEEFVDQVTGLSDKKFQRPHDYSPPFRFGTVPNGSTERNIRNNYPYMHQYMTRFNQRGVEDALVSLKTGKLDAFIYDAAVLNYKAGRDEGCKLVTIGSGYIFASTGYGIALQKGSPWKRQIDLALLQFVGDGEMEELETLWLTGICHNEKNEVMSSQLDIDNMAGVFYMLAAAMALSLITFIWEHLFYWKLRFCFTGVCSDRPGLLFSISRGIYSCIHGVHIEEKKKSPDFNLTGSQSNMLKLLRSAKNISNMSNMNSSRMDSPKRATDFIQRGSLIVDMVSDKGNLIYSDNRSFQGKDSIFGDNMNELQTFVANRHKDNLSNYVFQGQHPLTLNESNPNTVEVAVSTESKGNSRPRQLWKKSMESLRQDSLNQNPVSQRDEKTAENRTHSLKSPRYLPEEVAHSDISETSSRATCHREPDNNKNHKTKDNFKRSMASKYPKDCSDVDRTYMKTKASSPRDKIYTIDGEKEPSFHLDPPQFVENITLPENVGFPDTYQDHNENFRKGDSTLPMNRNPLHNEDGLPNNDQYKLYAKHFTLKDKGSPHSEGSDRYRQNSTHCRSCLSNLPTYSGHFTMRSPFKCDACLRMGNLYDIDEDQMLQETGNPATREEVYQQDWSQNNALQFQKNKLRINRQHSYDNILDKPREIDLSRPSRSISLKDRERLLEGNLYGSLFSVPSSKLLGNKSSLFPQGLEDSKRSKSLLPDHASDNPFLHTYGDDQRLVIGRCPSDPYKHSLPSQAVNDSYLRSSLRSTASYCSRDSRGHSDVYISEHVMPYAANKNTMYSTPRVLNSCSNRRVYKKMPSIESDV
# Procedure: as §2
# [4] = biological target: T4, recombinant rat GluN1/GluN2D (Rattus norvegicus, UniProt P35439+Q62645); assay: Two-electrode voltage-clamp (TEVC) recordings in Xenopus laevis oocytes, GluN1/GluN2D
# T4 construct: expressed in transfected cells; host or cells: Xenopus laevis oocytes (Ecocyte) injected with in vitro transcribed cRNA
# T4 sequence (Q62645 28-1323, other chains not shown): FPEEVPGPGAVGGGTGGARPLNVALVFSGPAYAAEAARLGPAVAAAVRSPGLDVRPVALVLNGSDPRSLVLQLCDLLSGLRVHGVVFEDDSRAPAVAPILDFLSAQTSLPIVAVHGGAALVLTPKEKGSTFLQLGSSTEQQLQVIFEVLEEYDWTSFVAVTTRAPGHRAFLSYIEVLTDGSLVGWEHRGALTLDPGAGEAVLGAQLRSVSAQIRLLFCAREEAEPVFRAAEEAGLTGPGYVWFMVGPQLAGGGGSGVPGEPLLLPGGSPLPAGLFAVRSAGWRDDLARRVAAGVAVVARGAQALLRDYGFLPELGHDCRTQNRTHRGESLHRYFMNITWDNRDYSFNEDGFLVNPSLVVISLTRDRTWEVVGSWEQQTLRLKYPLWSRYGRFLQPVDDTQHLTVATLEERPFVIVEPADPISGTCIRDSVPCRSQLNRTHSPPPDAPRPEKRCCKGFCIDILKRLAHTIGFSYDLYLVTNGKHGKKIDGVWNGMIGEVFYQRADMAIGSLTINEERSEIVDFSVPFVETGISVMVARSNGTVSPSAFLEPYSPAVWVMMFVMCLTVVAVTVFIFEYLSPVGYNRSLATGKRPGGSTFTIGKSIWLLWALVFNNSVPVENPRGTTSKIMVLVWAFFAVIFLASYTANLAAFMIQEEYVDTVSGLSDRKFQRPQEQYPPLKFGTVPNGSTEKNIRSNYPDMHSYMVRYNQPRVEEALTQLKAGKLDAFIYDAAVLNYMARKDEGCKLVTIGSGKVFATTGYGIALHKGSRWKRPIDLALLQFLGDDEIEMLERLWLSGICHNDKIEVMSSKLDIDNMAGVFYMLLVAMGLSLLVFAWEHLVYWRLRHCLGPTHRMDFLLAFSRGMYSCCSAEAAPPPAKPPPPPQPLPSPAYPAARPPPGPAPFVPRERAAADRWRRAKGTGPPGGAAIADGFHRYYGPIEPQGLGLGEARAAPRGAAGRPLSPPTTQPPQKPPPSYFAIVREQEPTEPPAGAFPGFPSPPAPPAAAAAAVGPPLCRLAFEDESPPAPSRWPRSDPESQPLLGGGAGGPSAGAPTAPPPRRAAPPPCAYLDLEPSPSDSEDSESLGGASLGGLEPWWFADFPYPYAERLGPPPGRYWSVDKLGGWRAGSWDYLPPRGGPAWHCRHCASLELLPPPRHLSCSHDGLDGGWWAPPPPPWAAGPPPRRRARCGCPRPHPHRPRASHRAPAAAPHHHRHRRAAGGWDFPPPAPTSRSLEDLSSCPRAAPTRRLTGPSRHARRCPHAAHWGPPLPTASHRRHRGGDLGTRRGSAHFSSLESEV
# Procedure: as §1, §2
# [5] = biological target: T5, recombinant rat GluN1/GluN2B (Rattus norvegicus, UniProt Q00960); assay: Two-electrode voltage-clamp (TEVC) recordings in Xenopus laevis oocytes, GluN1/GluN2B
# T5 construct: expressed in transfected cells; host or cells: Xenopus laevis oocytes (Ecocyte) injected with in vitro transcribed cRNA
# Procedure: as §1, §2
# [6] = biological target: T6, recombinant rat GluN1/GluN2C (Rattus norvegicus, UniProt Q00961); assay: Two-electrode voltage-clamp (TEVC) recordings in Xenopus laevis oocytes, GluN1/GluN2C
# T6 construct: expressed in transfected cells; host or cells: Xenopus laevis oocytes (Ecocyte) injected with in vitro transcribed cRNA
# Procedure: as §1, §2
# [7] = biological target: T7, recombinant rat GluN1/GluN2D (Rattus norvegicus, UniProt Q62645); assay: Two-electrode voltage-clamp (TEVC) recordings in Xenopus laevis oocytes, GluN1/GluN2D
# T7 construct: expressed in transfected cells; host or cells: Xenopus laevis oocytes (Ecocyte) injected with in vitro transcribed cRNA
# T7 sequence (Q62645 28-1323, other chains not shown): as above
# Procedure: as §1, §2
# [8] = maximum potentiation, response without modulator = 100%, read-out: GluN2B EC50 (μM)/Max %: Max %
# [9] = maximum potentiation, response without modulator = 100%, read-out: GluN2C EC50 (μM)/Max %: Max %
# [10] = maximum potentiation, response without modulator = 100%, read-out: GluN2D EC50 (μM)/Max %: Max %
# [11] = maximum potentiation, response without modulator = 100%
"Emax [1, 8] [%]","Emax [2, 9] [%]",GluN2A EC50 (μM)/Max %: Max % [3] [%],"GluN2B EC50 (μM)/Max %: Max % [5, 11] [%]","GluN2C EC50 (μM)/Max %: Max % [6, 11] [%]","GluN2D EC50 (μM)/Max %: Max % [7, 11] [%]","I30 μM/Icontrol (mean ± SEM, %) GluN2B ([5]; 30 μM compound, Tables 5-7) [%]","EC50 ([1]; fitted when potentiation at 30 μM exceeded 120%, Tables 3, 5-7, read-out: EC50 (max.) (μM %) GluN2B: fitted EC50) [µM]","Emax ([1]; percentage of the initial glutamate (100 μM) and glycine (30 μM) current, read-out: EC50 (max.) (μM %) GluN2B: fitted maximum response) [%]","EC50 ([2]; fitted when potentiation at 30 μM exceeded 120%, Tables 3, 5-7, read-out: EC50 (max.) (μM %) GluN2C: fitted EC50) [µM]","Emax ([2]; percentage of the initial glutamate (100 μM) and glycine (30 μM) current, read-out: EC50 (max.) (μM %) GluN2C: fitted maximum response) [%]","I30 μM/Icontrol (mean ± SEM, %) GluN2C ([6]; 30 μM compound, Tables 5-7) [%]","Emax ([4]; percentage of the initial glutamate (100 μM) and glycine (30 μM) current, read-out: EC50 (max.) (μM %) GluN2D: fitted maximum response) [%]","I30 μM/Icontrol (mean ± SEM, %) GluN2D ([7]; 30 μM compound, Tables 5-7) [%]",Structure (SMILES),"Emax [4, 10] [%]"
–,–,191,226,162,141,–,–,–,–,–,–,–,–,CCOc1ccc(OCC2c3ccc(OC(C)C)cc3CCN2C(=S)c2ccc(F)c(Cl)c2)cc1 (stereo not shown) [1180-165],–
307,233,179,–,–,–,–,–,–,–,–,–,–,–,COc1ccc(OCC2c3ccc(OC(C)C)cc3CCN2C(=S)c2cccc(F)c2)cc1 (stereo not shown) [1180-166],200
171,138,–,–,–,–,185,1,179,0.33,141,139,128,126,CCOc1ccc(OCC2c3ccc(OC(C)C)cc3CCN2C(=S)c2cccc(C(F)(F)F)c2)cc1 (stereo not shown) [1180-168],–

Structure (SMILES),"Emax [1, 8] [%]","Emax [2, 9] [%]",GluN2A EC50 (μM)/Max %: Max % [3] [%],"GluN2B EC50 (μM)/Max %: Max % [5, 11] [%]","GluN2C EC50 (μM)/Max %: Max % [6, 11] [%]","GluN2D EC50 (μM)/Max %: Max % [7, 11] [%]","I30 μM/Icontrol (mean ± SEM, %) GluN2B ([5]; 30 μM compound, Tables 5-7) [%]","EC50 ([1]; fitted when potentiation at 30 μM exceeded 120%, Tables 3, 5-7, read-out: EC50 (max.) (μM %) GluN2B: fitted EC50) [µM]","Emax ([1]; percentage of the initial glutamate (100 μM) and glycine (30 μM) current, read-out: EC50 (max.) (μM %) GluN2B: fitted maximum response) [%]","EC50 ([2]; fitted when potentiation at 30 μM exceeded 120%, Tables 3, 5-7, read-out: EC50 (max.) (μM %) GluN2C: fitted EC50) [µM]","Emax ([2]; percentage of the initial glutamate (100 μM) and glycine (30 μM) current, read-out: EC50 (max.) (μM %) GluN2C: fitted maximum response) [%]","I30 μM/Icontrol (mean ± SEM, %) GluN2C ([6]; 30 μM compound, Tables 5-7) [%]","Emax ([4]; percentage of the initial glutamate (100 μM) and glycine (30 μM) current, read-out: EC50 (max.) (μM %) GluN2D: fitted maximum response) [%]","I30 μM/Icontrol (mean ± SEM, %) GluN2D ([7]; 30 μM compound, Tables 5-7) [%]","Emax [4, 10] [%]"
COc1ccc(OCC2c3ccc(OC(C)C)cc3CCN2C(=O)c2cccc(F)c2)cc1 (stereo not shown) [1180-140],450,304,159,–,–,–,–,–,–,–,–,–,–,–,521
